Experimental findings from ChEMBL document CHEMBL1201862, “PubChem BioAssay data set” (2004) are described below.

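Protocol summary: plate cells (96-well), add compound at 5 concentrations, incubate 48 h, interpolate endpoints linearly. The concentration for 50% growth inhibition is given as GI50.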 Active and inactive are the calls of the source. No stated cut-off is given here; in the data, active = GI50 up to about 1.1 µM and inactive = higher. Some results are limits rather than exact numbers.

Test systems include HCC 2998; HOP-62; RXF 393; SK-OV-3; LOX IMVI; SK-MEL-28; OVCAR-8; UO-31; SF-295; HT-29; Malme-3M; HCT-15; NCI-H23; IGROV-1; MCF7; NCI-H226; HOP-92; SK-MEL-5; COLO 205; OVCAR-4.
Holding throughout (test): NCI anticancer screen, dose series, 48 h

Regarding `O=C(CSCC(=O)N/N=C/c1cccc(C(F)(F)F)c1)N/N=C/c1cccc(C(F)(F)F)c1`, the GI50 in the experiment with HCC 2998, in the experiment on HOP-62, with RXF 393, in the experiment on SK-OV-3, in the experiment with LOX IMVI and in the experiment with SK-MEL-28 was > 100 µM (inactive) in each case. Besides, the GI50 in the experiment on OVCAR-8 is 2.9 µM (inactive); in the experiment with UO-31, > 100 µM (inactive); in the experiment on SF-295 it was > 100 µM (inactive); in the experiment with HT-29, > 100 µM (inactive); in the experiment on Malme-3M, > 100 µM (inactive); in the experiment with HCT-15, over 100 µM. Further, the GI50 with NCI-H23, in the experiment with IGROV-1, with MCF7, in the experiment on NCI-H226, with HOP-92 and with SK-MEL-5 was > 100 µM (inactive) throughout.
In the case of `O=S(=O)(O)c1cc(S(=O)(=O)O)c2cc(/N=N/c3ccc(/N=N/c4ccc(/C=C/c5ccc(/N=[N+](/[O-])c6ccc(/C=C/c7ccc(/N=N/c8ccc(/N=N/c9ccc%10cc(S(=O)(=O)O)cc(S(=O)(=O)O)c%10c9)cc8)cc7S(=O)(=O)O)c(S(=O)(=O)O)c6)cc5S(=O)(=O)O)c(S(=O)(=O)O)c4)cc3)ccc2c1`, the GI50 in the experiment on HCC 2998 is > 61.2 µM (inactive); with HOP-62, > 100 µM (inactive); in the experiment on COLO 205, 50.7 µM (inactive); with RXF 393 it was > 50.9 µM (inactive); in the experiment with SK-OV-3, > 22.3 µM (inactive); in the experiment with LOX IMVI, > 59.7 µM (inactive). Besides, the GI50 was > 100 µM (inactive) in the experiment on SK-MEL-28; > 78.7 µM (inactive) in the experiment with OVCAR-8; 70.8 µM (inactive) with UO-31; > 48.1 µM (inactive) in the experiment with OVCAR-4; > 33 µM (inactive) with SF-295; > 55.1 µM (inactive) in the experiment with HT-29. Also, the GI50 with Malme-3M is > 62.8 µM (inactive); in the experiment with HCT-15 it was 52.6 µM; in the experiment on NCI-H23 it was > 77.8 µM (inactive); with IGROV-1, > 100 µM (inactive); in the experiment with MCF7, > 100 µM (inactive); with NCI-H226 it was > 50.5 µM (inactive). The GI50 in the experiment on HOP-92 is > 58.5 µM (inactive); with SK-MEL-5, > 66.7 µM (inactive).
On to `O=C(NC(Cc1ccc(Br)cc1)C(=O)O)c1ccc(I)cc1` (stereo not drawn), for which the GI50 in the experiment with HCC 2998 is > 47.4 µM (inactive); in the experiment with HOP-62, > 100 µM (inactive); in the experiment on COLO 205, > 100 µM (inactive); with RXF 393, > 100 µM (inactive); with SK-OV-3, > 100 µM (inactive); in the experiment on LOX IMVI it was > 100 µM (inactive). In addition, the GI50 was > 100 µM (inactive) in the experiment on SK-MEL-28; > 100 µM (inactive) with OVCAR-8; > 100 µM (inactive) with UO-31; 75.3 µM (inactive) in the experiment with OVCAR-4; > 100 µM (inactive) with SF-295; > 100 µM (inactive) in the experiment on HT-29. In addition, the GI50 in the experiment with Malme-3M is 83.4 µM (inactive); in the experiment on HCT-15 it was over 100 µM; with NCI-H23, > 100 µM (inactive); in the experiment on IGROV-1, > 100 µM (inactive); with MCF7 it was > 100 µM (inactive); in the experiment with NCI-H226, > 100 µM (inactive). Besides, the GI50 in the experiment on HOP-92 is 65.3 µM (inactive); in the experiment with SK-MEL-5 it was > 100 µM (inactive).
`COc1cc(C2S/C(=C/c3ccccc3)C(=O)N2c2ccc(NC(C)=O)cc2)cc(OC)c1OC` (stereo not drawn): the GI50 in the experiment with HCC 2998 is 19.7 µM (inactive); in the experiment on HOP-62, 30.4 µM (inactive); in the experiment with COLO 205, 15.2 µM (inactive); in the experiment on RXF 393, 17.5 µM (inactive); in the experiment on SK-OV-3, 35.2 µM (inactive); in the experiment on LOX IMVI, 18.2 µM (inactive). In addition, the GI50 is 30.8 µM (inactive) in the experiment with SK-MEL-28; 18.5 µM (inactive) in the experiment on OVCAR-8; 24 µM (inactive) in the experiment with UO-31; 19.3 µM (inactive) in the experiment on OVCAR-4; 36.6 µM (inactive) in the experiment with SF-295; 13.2 µM (inactive) in the experiment on HT-29. The GI50 was 22 µM (inactive) with Malme-3M; 15 µM in the experiment on HCT-15; 20 µM (inactive) with NCI-H23; 23.9 µM (inactive) with MCF7; 20.2 µM (inactive) with HOP-92; 13.1 µM (inactive) with SK-MEL-5.
As for `COc1ccc2cc1Oc1ccc(cc1)CC1c3c(cc(OC)c4c3Oc3cc5c(cc3O4)CCNC5C2)CCN1C` (stereo not drawn), the GI50 was 1.2 µM (inactive) with HCC 2998; 2.2 µM (inactive) with HOP-62; 1.72 µM (inactive) with COLO 205; 4.67 µM (inactive) in the experiment with SK-OV-3; 1.69 µM (inactive) in the experiment on LOX IMVI; 1.88 µM (inactive) in the experiment with SK-MEL-28. For the same molecule, the GI50 was 1.77 µM (inactive) with OVCAR-8; 15.6 µM (inactive) in the experiment on UO-31; 2.33 µM (inactive) in the experiment on OVCAR-4; 1.91 µM (inactive) in the experiment on SF-295; 2.09 µM (inactive) with Malme-3M; 1.77 µM in the experiment with HCT-15. Further, the GI50 with NCI-H23 is 2.06 µM (inactive); in the experiment with IGROV-1, 1.87 µM (inactive); in the experiment with MCF7, 1.85 µM (inactive); in the experiment on NCI-H226, 5.52 µM (inactive); with HOP-92 it was 2.45 µM (inactive); with SK-MEL-5, 2.06 µM (inactive).
Consider `Nc1nc2c(c(-c3ccc(F)cc3)n1)COC/C2=C\c1ccc(F)cc1`, for which the GI50 was 30.8 µM (inactive) in the experiment on HCC 2998; 34.6 µM (inactive) with HOP-62; > 100 µM (inactive) in the experiment with COLO 205; 52.7 µM (inactive) with RXF 393; > 100 µM (inactive) in the experiment with SK-OV-3; > 100 µM (inactive) in the experiment with SK-MEL-28. Besides, the GI50 is 58.2 µM (inactive) in the experiment on OVCAR-8; 14.7 µM (inactive) in the experiment on UO-31; > 100 µM (inactive) in the experiment on OVCAR-4; 35.5 µM (inactive) with SF-295; 15.8 µM (inactive) with HT-29; 12.7 µM (inactive) in the experiment with Malme-3M. For the same molecule, the GI50 in the experiment on HCT-15 was over 100 µM; in the experiment with NCI-H23 it was 45.6 µM (inactive); in the experiment on IGROV-1, 40.6 µM (inactive); in the experiment with MCF7, 28.1 µM (inactive); in the experiment with NCI-H226 it was 27.5 µM (inactive); in the experiment on HOP-92, 30.4 µM (inactive). Besides, in the experiment on SK-MEL-5, the GI50 was 56 µM (inactive).
As to `CC1(O)C2(c3ccccc3)CCC[N+]1(C)CC2` (stereo not drawn), the GI50 in the experiment on HCC 2998, in the experiment with HOP-62, in the experiment on COLO 205, in the experiment on RXF 393, with SK-OV-3 and in the experiment with LOX IMVI was > 100 µM (inactive) each time. Moreover, the GI50 in the experiment with SK-MEL-28, in the experiment with OVCAR-8, in the experiment on UO-31, in the experiment with OVCAR-4, in the experiment on SF-295 and in the experiment on HT-29 was > 100 µM (inactive) throughout. Moreover, the GI50 in the experiment with Malme-3M is > 100 µM (inactive); in the experiment with HCT-15, over 100 µM; in the experiment on NCI-H23 it was > 100 µM (inactive); in the experiment with IGROV-1, > 100 µM (inactive); in the experiment with MCF7, > 100 µM (inactive); with NCI-H226, > 100 µM (inactive). Besides, the GI50 in the experiment on HOP-92 and in the experiment with SK-MEL-5 was > 100 µM (inactive) throughout.
